Data published in paper PMC4444405 (Chemical biology & drug design, 2014).
Like-named read-outs stand apart in the source and are kept apart here. Square brackets hold non-standard residues; d marks the D form. Ends that are not written are not given here. pY = N[C@@H](Cc1ccc(OP(=O)(O)O)cc1)C(=O)O

Assays:
[1] = biological target: T1, Src-YEEI (Homo sapiens, UniProt P12931); format: biochemical
[2] = biological target: T1, Src-YEEI; format: biochemical; remark: listed apart in the source
[3] = biological target: T2, Src-YEEI:pFAK peptide complex (Homo sapiens, UniProt P12931); test: Z'Lyte end-point in vitro kinase assay, Src-YEEI in presence of pFAK peptide; format: biochemical; settings: compound 10 μM; Z'Lyte library screen
[4] = test system: Src-YEEI:pFAK peptide complex; test: as above; format: biochemical, human; settings: ratio of the IC50 values for Src-YEEI:pFAK peptide complex and Src-YEEI alone, Z'Lyte
[5] = biological target: T1, Src-YEEI; format: biochemical; remark: listed apart in the source
[6] = biological target: T1, Src-YEEI; format: biochemical; settings: read-out: IC50, Src-YEEI alone, ADP Quest
[7] = biological target: T2, Src-YEEI:pFAK peptide complex; format: biochemical; settings: read-out: IC50, Src-YEEI + pFAK, ADP Quest
[8] = test system: Src-YEEI:pFAK peptide complex; format: biochemical, human; settings: ratio of the IC50 values for Src-YEEI:pFAK peptide complex and Src-YEEI alone, ADP Quest

Molecule | percent of maximal activation of Src-YEEI [1] [%] | rate of ADP production by Src-YEEI in presence of peptide [2] [pmol ADP produced/min] | percent inhibition of Src-YEEI:pFAK peptide complex in the screening assay [3] | Selectivity ratio, Z'Lyte [4] | percent inhibition of Src-YEEI alone in the screening assay ([5]; 10 µM) | IC50 ([5]; read-out: IC50, Src-YEEI alone, Z'Lyte) [nM] | IC50 [6] [nM] | IC50 [7] [nM] | Selectivity ratio, ADP Quest [8]
AAAARALPSIPKLAN NEKQGVRSHTVSVSETDDY^PAEIID (AAAARALPSIPKLANNEKQGVRSHTVSVSETDD[pY]AEIID) [pFAK] | 40 | 1.0 | – | – | – | – | – | – | –
COc1ccc(N(C(=O)Oc2c(C)cccc2C)c2ccnc(Nc3ccc(N4CCN(C)CC4)cc3)n2)c(OC)c1 [WH-4-023] | – | – | more than 70% | 0.94 | more than 70% | 1280 | 19 | 25 | 0.76
